Assay results: publication PMC4980666, “N-acylhydrazone inhibitors of influenza virus PA endonuclease with versatile metal binding modes” (Scientific Reports, 2016)
pEC50, pIC50: −log10 of the molar value.

Legend:
[1] = system: influenza virus endonuclease; details: read-out: IC50 in enzymatic assays; cited from earlier work
[2] = molecular target: influenza virus vRNPs reconstituted in HEK293T cells (Influenza A virus, UniProt P03433); experiment: vRNP reconstitution assay in HEK293T cells; format: cell-based; details: for pEC50: read-out: vRNP reconstitution assay Activity EC50; for selectivity index (ratio of CC50 to EC50): vRNP assay, HEK293T
[3] = in vitro; details: human, vRNP reconstitution assay Cytotoxicity CC50
[4] = in vitro; details: dog
[5] = system: influenza A virus (strain A/PR/8/34); experiment: microbe, parasite or virus in culture; format: cell-based; details: MDCK cells; for EC90 / EC99: Influenza A virus, PR/8, 24 h, qPCR; for EC90: 1-log10 reduction in virus titer, read-out: Virus yield assay Antiviral activity EC90; for EC99: 2-log10 reduction in virus titer, read-out: Virus yield assay Antiviral activity EC99

Row | Compound | pIC50 [1] | pEC50 [2] | CC50 at 24 h [3] [µM] | selectivity index (ratio of CC50 to EC50) [2] | CC50 at 24 h [4] [µM] | EC90 [5] [µM] | EC99 [5] [µM] | difference between EC50 in the vRNP assay and EC90 in the virus yield assay [2] [fold] | SI (selectivity index, ratio between CC50 and EC90) [5]
1 | O=c1[nH]c(-c2ccc(-c3nnn[nH]3)cc2)ncc1O [2-(4-(1H-tetrazol-5-yl)phenyl)-5-hydroxypyrimidin-4(3H)-one] | 6.82 |  |  |  |  |  |  |  | 
2 | NC(=O)N/N=C/c1cccc(O)c1O [Compound 1, N’-(2,3-dihydroxybenzylidene)-semicarbazide] |  | 3.97 | > 200 |  |  |  |  |  | 
3 | COc1cccc(/C=N/NC(N)=O)c1O [Compound 2] |  | < 4.00 | > 200 |  |  |  |  |  | 
4 | CCCCCCCC(=O)N/N=C/c1cccc(O)c1O [Compound 3] |  | 5.23 | < 50 | below 8 | > 200 |  |  |  | 
5 | CCCCCCCC(=O)N/N=C/c1cccc(OC)c1O [Compound 4] |  | 5.20 | < 50 | below 8 | > 200 |  |  |  | 
6 | O=C(N/N=C/c1cccc(O)c1O)c1ccccc1 [Compound 5] |  | 5.59 |  | below 8 | ≥ 146 | > 25 | > 25 |  | 
7 | COc1cccc(/C=N/NC(=O)c2ccccc2)c1O [Compound 6] |  | 4.82 |  | below 8 | > 200 | > 50 | > 50 |  | 
8 | O=C(N/N=C/c1cccc(O)c1O)c1ccccc1O [Compound 7] |  | 5.49 |  | below 8 | > 200 | 100 | 172 | ≥ 8 | >2.0
9 | COc1cccc(/C=N/NC(=O)c2ccccc2O)c1O [Compound 8] |  | 5.72 |  | below 8 | > 200 | > 12.5 | > 12.5 |  | 
10 | O=C(N/N=C/c1cc(O)c(O)cc1O)c1ccccc1O [Compound 9] |  | 5.26 | > 200 |  | > 200 | 5.3 | 16 |  | >38
11 | O=C(N/N=C/c1c(O)cc(O)cc1O)c1ccccc1O [Compound 10] |  | 6.40 | 132 |  | 111 | 8.5 | 14 | ≥ 8 | 
12 | O=C(N/N=C/c1cc(O)c(O)c(O)c1)c1ccccc1O [Compound 11] |  | 5.25 | > 200 |  | > 200 | 12 | 30 |  | >17
13 | COc1cc(C(=O)N/N=C/c2cc(O)ccc2O)cc(OC)c1OC [Compound 12] |  | 4.70 | 39 |  | > 200 | > 12.5 | > 12.5 |  | 
14 | O=C(N/N=C/c1ccccc1)c1cc(O)c(O)c(O)c1 [Compound 13] |  | 5.20 | > 200 |  | > 200 | 34 | 71 |  | >5.9
15 | O=C(N/N=C/c1ccccc1O)c1cc(O)c(O)c(O)c1 [Compound 14] |  | 5.64 | > 200 |  | > 200 | 37 | 63 | ≥ 8 | >5.4
16 | O=C(N/N=C/c1cc(O)ccc1O)c1cc(O)c(O)c(O)c1 [Compound 15] |  | 4.85 | > 200 |  | ≥ 172 | 7.5 | 18 |  | ≥23
